This passage reports IC50, AC50 and EC50 results from ChEMBL document CHEMBL1201862, “PubChem BioAssay data set” (2004).

Active and inactive are the calls of the source. Where only a bound is given, the exact number is not on record here.

Experiment [1] is described as follows: ADAM10 inhibitors, peptide cleavage, dose response, biochemical, QFRET (AID 743254).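 Note: ADAM10 enzyme with the DM2 quenched FRET peptide as substrate; EDANS fluorescence gain as the protease cuts the substrate; inhibitor potency against ADAM10 proteolytic activity.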
For experiment [2], the target named is Disintegrin and metalloproteinase domain-containing protein 17 (Homo sapiens, UniProt P78536). In words: ADAM17 protease inhibitors, dose response, counter-screen for ADAM10 exosite inhibitor project, biochemical, quenched FRET substrate (AID 743253). Background: Counterscreens check selectivity or assay interference.
The target in experiment [3] is Potassium channel subfamily K member 9 (Homo sapiens, UniProt Q9NPC2). Briefly: TASK3 (KCNK9) channel inhibitors, thallium flux, SAR follow-up, selectivity assay for TASK1 inhibitor project, cell-based, FluxOR thallium flux, concentration-response (AID 652211).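 Note: potency is for inhibitors of the channel.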 It is filed as functional.
Experiment [4] deals with Potassium channel subfamily K member 3 (Homo sapiens, UniProt O14649). Briefly: TASK1 (KCNK3) potassium channel inhibitors, SAR follow-up, CHO cells, FluxOR thallium flux (AID 652212). It is filed as functional.
Another experiment addresses Paired box protein Pax-8 (Homo sapiens, UniProt Q06710). Briefly: inhibitors of PAX8-driven TPO luciferase reporter, dose response, RMG-I cells, cherry-pick (AID 687027).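 Note: luciferase reporter driven by Pax8 target thyroperoxidase promoter measured by SteadyGlo luminescence.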 It is filed as functional, cell-based.
A short description of experiment [5]: PAX2 cell-based inhibition, dose response, selectivity assay for PAX8 inhibitor project, plate reader, dry powder samples (AID 743048).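 Note: HEK293 cells carrying a WT1 promoter luciferase reporter driven by expressed Pax2; potency is for inhibition of Pax2 driven reporter signal.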 It is filed as functional.
The nature of experiment [6]: cytotoxicity in COV362 ovarian cancer cells, dose response, cytotoxicity control for PAX8 inhibitor project, cell-based, plate reader, dry powder, SA12 (AID 743144). It is filed as functional.
Experiment [7] can be described thus: IOSE-T80 ovarian epithelial cell cytotoxicity, dose response, cytotoxicity control for PAX8 inhibitor project, plate reader, dry powder samples (AID 743045). It is filed as functional, cell-based.
Experiment [8] in a line: NIH:OVCAR-3 ovarian cancer cell cytotoxicity, dose response, PAX8 inhibitor project, plate reader, dry powder samples (AID 743044). It is filed as functional, cell-based.
A short description of experiment [9]: PAX5 activity inhibitors, dose response, selectivity assay for PAX8 inhibitor project, cell-based, plate reader, dry powder samples (AID 743047).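 Note: HEK293 cells carrying a Pax5 driven CD19 promoter luciferase reporter; potency of inhibitors that lower reporter luminescence.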 It is filed as functional.
Experiment [10] is described as follows: IGROV1 ovarian cancer cell cytotoxicity, dose response, PAX8 inhibitor project, plate reader, dry powder samples (AID 743043). It is filed as functional, cell-based. Conditions: IGROV-1.
The nature of experiment [11]: cytotoxicity in OVCAR4 cells, dose response, cytotoxicity control for PAX8 inhibitor project, cell-based, plate reader, dry powder, SA11 (AID 743150). The conditions noted are these: OVCAR-4. It is filed as functional.
A short description of experiment [12]: cytotoxicity in COV434 cells, dose response, cytotoxicity control for PAX8 inhibitor project, cell-based, plate reader, dry powder, SA7 (AID 743145). It is filed as functional.
The nature of experiment [13]: cytotoxicity in OV-90 ovarian cancer cells, dose response, PAX8 inhibitor project, cell-based, plate reader, dry powder, SA8 (AID 743149). It is filed as functional.
Experiment [14] can be described thus: cytotoxicity in OVCAR8 ovarian cancer cells, dose response, PAX8 project, cell-based, plate reader, dry powder samples (AID 743197). It is filed as functional. Conditions: OVCAR-8.
The nature of experiment [15]: cytotoxicity dependent on PAX8, dose response, cell-based, plate reader, dry powder (AID 743049). It is filed as functional.
Experiment [16] can be described thus: P. falciparum 3D7-ScDHODH growth inhibitors, dose response, SYBR Green, dry powder samples (AID 1159570).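 Note: parasite growth measured after 72 hours of compound exposure.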 It is filed as functional, cell-based.
The nature of experiment [17]: HepG2 cell cytotoxicity, dose response, cytotoxicity control, plate reader, dry powder samples (AID 1159569).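 Note: inhibitor potency with signal falling toward the positive control level.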 It is filed as functional, cell-based.
A short description of experiment [18]: P. falciparum Dd2 growth inhibitors, dose response, SYBR Green, cherry-picked samples (AID 1159567). It is filed as functional, cell-based.
The nature of experiment [19]: P. falciparum Dd2 growth inhibitors, dose response, SYBR Green, dry powder samples (AID 1159566).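 Note: potency for growth inhibition with lower SYBR green DNA signal.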 It is filed as functional, cell-based.
A short description of experiment [20]: HepG2 cell cytotoxicity, dose response, cytotoxicity control, cherry-picked samples (AID 1159577). It is filed as functional, cell-based.
Experiment [21] is described as follows: P. falciparum ATP4 D1247Y mutant growth inhibitors, dose response, NITD609-resistant line, SYBR Green, dry powder (AID 1159571).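 Note: parasites synchronized at ring stage by sorbitol before testing.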 It is filed as functional, cell-based.
Experiment [22] deals with T1, Rac GTPase-activating protein 1 (Homo sapiens, UniProt Q9H0H5).
T1 sequence (Q9H0H5 whole entry): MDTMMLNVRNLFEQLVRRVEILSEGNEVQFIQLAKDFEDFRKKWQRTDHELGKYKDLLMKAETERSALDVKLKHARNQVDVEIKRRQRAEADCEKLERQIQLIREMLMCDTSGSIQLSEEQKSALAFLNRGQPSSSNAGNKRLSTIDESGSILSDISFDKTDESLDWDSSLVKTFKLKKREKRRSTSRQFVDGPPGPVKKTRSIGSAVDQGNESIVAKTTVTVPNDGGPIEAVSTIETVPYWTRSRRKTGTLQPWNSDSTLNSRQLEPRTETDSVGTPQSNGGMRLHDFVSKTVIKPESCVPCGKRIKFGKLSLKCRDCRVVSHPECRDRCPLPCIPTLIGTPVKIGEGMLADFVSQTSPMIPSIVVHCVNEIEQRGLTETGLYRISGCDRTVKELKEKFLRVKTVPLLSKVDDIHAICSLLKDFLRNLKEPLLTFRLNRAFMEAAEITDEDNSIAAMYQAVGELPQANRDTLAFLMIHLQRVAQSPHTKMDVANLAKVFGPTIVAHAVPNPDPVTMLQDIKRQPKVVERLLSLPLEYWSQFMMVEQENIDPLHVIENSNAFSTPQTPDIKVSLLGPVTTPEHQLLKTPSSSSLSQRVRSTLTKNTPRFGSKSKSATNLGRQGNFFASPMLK
In words: MgcRacGAP GTPase-activating activity inhibitors, confirmation, biochemical, ADP Hunter fluorescence, primary and confirmatory (AID 624330). It is filed as functional.

For experiment [23], the target named is T2, Oxysterols receptor LXR-beta (Homo sapiens, UniProt P55055).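 Note: agonist activity at LXR measured by a cell-based luminescence readout across a dose range, run as a counterscreen for daf-12 agonists; HEK293 cells with Gal4-LXR fusion and GAL4-driven luciferase reporter; potency for activation of Gal4-LXR reporter so compounds are agonists.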
T2 sequence (P55055 whole entry): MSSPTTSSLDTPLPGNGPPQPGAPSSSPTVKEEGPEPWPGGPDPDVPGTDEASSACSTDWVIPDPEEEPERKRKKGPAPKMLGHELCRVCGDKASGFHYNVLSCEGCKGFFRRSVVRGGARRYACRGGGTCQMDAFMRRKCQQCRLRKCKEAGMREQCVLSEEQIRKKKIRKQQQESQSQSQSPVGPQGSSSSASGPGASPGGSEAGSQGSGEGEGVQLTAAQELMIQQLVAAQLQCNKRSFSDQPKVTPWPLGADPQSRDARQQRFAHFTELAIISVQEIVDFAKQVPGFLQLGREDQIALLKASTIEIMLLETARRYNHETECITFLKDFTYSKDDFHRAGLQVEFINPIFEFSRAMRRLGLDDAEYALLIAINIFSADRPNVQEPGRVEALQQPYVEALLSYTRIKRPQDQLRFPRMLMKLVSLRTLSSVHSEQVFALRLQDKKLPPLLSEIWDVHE
It is filed as functional, cell-based.

Experiment [24] deals with NAD-dependent protein deacylase sirtuin-5, mitochondrial (Homo sapiens, UniProt Q9NXA8). Briefly: SIRT5 desuccinylase inhibitors, dose response, biochemical, fluorescence imaging, cherry-pick, set 5 (AID 720591).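 Note: desuccinylation of succinyl peptide AMC substrate read as fluorescence after trypsin release; potency of inhibitors that lower fluorescence and may act on trypsin instead.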
In experiment [25] the target is Peroxisome proliferator-activated receptor gamma/Nuclear receptor coactivator 1 (Homo sapiens, UniProt P37231). Briefly: TR-FRET dose response biochemical High Throughput Screening assay for agonists of the steroid receptor coactivator 1 (SRC-1) recruitment by the peroxisome proliferator-activated receptor gamma (PPAR gamma): non-selective agonists. [Related pubchem assays (depositor defined):AID1300, AID1808, AID504735, AID631]. It is filed as protein assay.

For experiment [26], the target named is Peroxisome proliferator-activated receptor gamma/Nuclear receptor coactivator 3 (Homo sapiens, UniProt P37231). In words: TR-FRET dose response biochemical High Throughput Screening assay for agonists of the steroid receptor coactivator 3 (SRC-3) recruitment by the peroxisome proliferator-activated receptor gamma (PPAR gamma): non-selective agonists. [Related pubchem assays: 1301 (Confirmation screen.), 1048 (Primary screen.)]. It is filed as functional.

Experiment [27] concerns the target Peroxisome proliferator-activated receptor gamma/Nuclear receptor coactivator 2 (Homo sapiens, UniProt P37231). Briefly: TR-FRET dose response biochemical High Throughput Screening assay for agonists of the steroid receptor coactivator 2 (SRC-2) recruitment by the peroxisome proliferator-activated receptor gamma (PPAR gamma): non-selective agonists. [Related pubchem assays: 1297, 1032 ]. It is filed as functional. For orientation: TR-FRET usually uses a lanthanide donor and a delayed reading to cut background.

A further experiment concerns the target Major prion protein (Homo sapiens, UniProt P04156). It is filed as functional, cell-based.
The next experiment has as its target Fatty acid synthase (Homo sapiens, UniProt P49327). In words: FAS thioesterase domain inhibitors, SAR follow-up, biochemical, endpoint fluorescence intensity, powder samples (AID 652164). It is filed as functional.
For experiment [28], the target named is T3, Heat shock factor protein 1 (Mus musculus, UniProt P38532).
T3 sequence (P38532 whole entry): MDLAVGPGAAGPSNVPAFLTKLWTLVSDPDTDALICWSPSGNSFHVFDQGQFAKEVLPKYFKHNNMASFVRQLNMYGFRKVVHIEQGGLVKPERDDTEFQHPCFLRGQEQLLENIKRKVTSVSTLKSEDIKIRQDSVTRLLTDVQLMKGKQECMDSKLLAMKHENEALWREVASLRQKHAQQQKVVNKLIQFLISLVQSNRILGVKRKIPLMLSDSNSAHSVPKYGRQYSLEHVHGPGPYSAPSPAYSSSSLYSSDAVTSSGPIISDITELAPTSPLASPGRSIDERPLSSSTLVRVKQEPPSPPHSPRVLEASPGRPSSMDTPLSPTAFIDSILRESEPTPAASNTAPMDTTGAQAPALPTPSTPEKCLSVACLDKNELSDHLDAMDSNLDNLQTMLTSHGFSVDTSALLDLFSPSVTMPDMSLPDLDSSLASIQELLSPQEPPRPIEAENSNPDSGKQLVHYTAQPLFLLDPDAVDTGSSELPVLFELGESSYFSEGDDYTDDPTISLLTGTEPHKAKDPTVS
Briefly: inhibition of MG132-induced HSE-luciferase signal, confirmation, cell-based, NIH3T3, luminescence, dose retest (AID 2382).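 Note: NIH3T3 fibroblasts with HSF1-driven luciferase reporter stressed by proteasome inhibitor MG132; luminescence from HSF1-driven luciferase expression after 8 hours of MG132 stress.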 It is filed as functional.

For experiment [29], the target named is T3, Heat shock factor protein 1. Briefly: HSF1 potentiators in luciferase reporter cells, confirmation, cell-based, NIH3T3, luminescence, dose retest (AID 435004).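 Note: stress induced by proteasome inhibitor MG132 added 30 min after compound; luciferase reporter driven by HSF1 response element in NIH3T3 cells; actives raise luminescence as potentiators of the MG132 stress response.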 It is filed as functional. A general note: A reporter such as luciferase makes a cellular process visible.

The IC50 is the concentration that gives 50% inhibition. With `CC1(Cc2ccc(C(F)(F)F)o2)C(=O)Nc2ccc(-c3cccc(C(F)(F)F)c3)cc21` (stereo not drawn), the IC50 in experiment [1] was 11.3 µM (inactive); in experiment [2], > 69.6 µM (inactive).
Regarding `CCOc1ccccc1NC(=O)c1cccc(NC(=O)C(C)(C)C)c1`, the 50% inhibitory concentration (IC50) was 30.5 µM (active) in [3] and 1.32 µM (active) in experiment [4].
A word on the AC50: it is the concentration giving half of the maximal activity seen. `COc1ccccc1C#Cc1ccc([C@H]2[C@@H](CO)N(C(=O)C3CCCCC3)[C@H]2C#N)cc1`: the half-maximal activity concentration (AC50) at Paired box protein Pax-8 was 3.4 µM (active); in [5], 9.82 µM (active); in [6], 36.4 µM (active); in [7], 42.5 µM (active); in experiment [8], 18.9 µM (active); in experiment [9], 6.15 µM (active). In addition, the half-maximal activity concentration (AC50) in [10] was 44.8 µM (active); in experiment [11] it was 63.6 µM (active); in experiment [12] it was 20.6 µM (active); in experiment [13] it was 28.6 µM (active); in experiment [14] it was 60.8 µM (active); in experiment [15], 12.2 µM (active). The AC50 is 1.19 µM (active) in experiment [16]; 35.2 µM (active) in experiment [17]; 1.36 µM (active) in experiment [18]; 684 nM (active) in experiment [19]; > 39 µM (inactive) in experiment [20]; 1.53 µM (active) in [21].
As a reminder, the EC50 is the midpoint of the concentration-response curve. `Nc1ccc2c(c1)Cc1cc(N)c(Cl)cc1-2`: in [22], the IC50 is 8.46 µM (active). In addition, the EC50 in [23] was > 67.4 µM (inactive).
For `CC(C)(C)c1ccc(S(=O)(=O)NC(=O)C2(C)CCN2C(=O)C2CCCCC2)cc1` (stereo not drawn), the AC50 in experiment [24] was > 30 µM (inactive).
`C#CCn1/c(=N/C(=O)c2ccc(Br)s2)sc2cccc(OC)c21`: the EC50 was 10.3 µM (inactive) in experiment [25], 18.1 µM (not active) in experiment [26] and 10.6 µM (not active) in [27]. The IC50 was 2.6 µM (active) at Major prion protein and 48.6 µM (inactive) in “cells”.
Take `CN(C)S(=O)(=O)c1ccc(-c2csc(NC(=O)C3CCCC3)n2)cc1`: the IC50 on Fatty acid synthase was 1.55 µM (active).
Consider `CCc1ccc(-c2cn(C3CCCCC3)c(=S)[nH]2)cc1`, for which the IC50 in experiment [2] is > 69.5 µM (inactive).
For `COc1nc(-c2ccccc2)c2cc(Br)ccc2n1`, in [28], the EC50 is recorded as > 195 µM (not active). Moreover, the IC50 on Major prion protein is 5.53 µM (active); in “cells” it was > 138 µM (inactive).
Take `Cc1cc(NC(=O)CSc2nc3c(cc2C#N)CCC3)no1`: the EC50 in [29] is 830 nM (active); in experiment [23], > 67.6 µM (inactive).
Take `CCc1ccccc1-n1c(SCC(=O)NC)nnc1-c1ccco1`: in experiment [24], the AC50 was > 30 µM (inactive).
